{"source": "patent US20100004272A1", "about": "“Modulators of metabolism and the treatment of disorders related thereto” (ARENA PHARMACEUTICALS, INC., priority 2006, published 2010)", "key": {"[1]": {"biological_target": "T1, RUP3 receptor (Homo sapiens, UniProt Q8TDV5)", "T1 construct": "expressed in transfected cells; host or cells: melanophores (as per Potenza and Lerner 1992), electroporated", "T1 sequence (Q8TDV5 1-335)": "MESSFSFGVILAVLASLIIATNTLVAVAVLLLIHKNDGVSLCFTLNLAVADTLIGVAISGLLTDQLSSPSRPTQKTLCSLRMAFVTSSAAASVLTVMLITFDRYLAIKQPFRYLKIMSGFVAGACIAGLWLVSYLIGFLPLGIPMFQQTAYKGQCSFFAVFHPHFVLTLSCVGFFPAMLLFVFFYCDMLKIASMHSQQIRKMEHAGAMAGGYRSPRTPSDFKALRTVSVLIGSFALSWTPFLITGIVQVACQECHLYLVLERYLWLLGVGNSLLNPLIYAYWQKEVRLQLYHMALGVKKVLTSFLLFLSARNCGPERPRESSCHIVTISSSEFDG", "experiment": "RUP3 dose response in melanophores (human RUP3)", "format": "cell-based", "protocol": "(§1) Melanophores are maintained in culture as reported by Potenza, M. N. and Lerner, M. R., in Pigment Cell Research, Vol. 5, 372-378, 1992 and transfected with the RUP3 expression vector (pCMV) using electroporation. Following electroporation, the transfected cells are plated into 96 well plates for the assay. The cells are then allowed to grow for 48 hours in order to both recover from the electroporation procedure and attain maximal receptor expression levels. On the assay day, the growth medium on the cells is replaced with serum-free buffer containing 10 nM melatonin. The melatonin acts via an endogenous Gi-coupled GPCR in the melanophores to lower intracellular cAMP levels. In response to lowered cAMP levels, the melanophores translocate their pigment to the center of the cell. The net effect of this is a significant decrease in the absorbance reading of the cell monolayer in the well, measured at […]. After a 1-hour incubation in melatonin, the cells become completely pigment-aggregated. At this point a baseline absorbance reading is collected. Serial dilutions of test compounds are then added to the plate and compounds that stimulate RUP3 produce increases in intracellular cAMP levels. […] The measured increase in absorbance compared to the baseline reading allows one to quantitate the degree of receptor stimulation and plot a dose-response curve."}, "[2]": {"biological_target": "T2, RUP3 receptor (Mus musculus, UniProt Q7TQP3)", "T2 construct": "expressed in transfected cells; host or cells: melanophores, electroporated", "T2 sequence (Q7TQP3 1-335)": "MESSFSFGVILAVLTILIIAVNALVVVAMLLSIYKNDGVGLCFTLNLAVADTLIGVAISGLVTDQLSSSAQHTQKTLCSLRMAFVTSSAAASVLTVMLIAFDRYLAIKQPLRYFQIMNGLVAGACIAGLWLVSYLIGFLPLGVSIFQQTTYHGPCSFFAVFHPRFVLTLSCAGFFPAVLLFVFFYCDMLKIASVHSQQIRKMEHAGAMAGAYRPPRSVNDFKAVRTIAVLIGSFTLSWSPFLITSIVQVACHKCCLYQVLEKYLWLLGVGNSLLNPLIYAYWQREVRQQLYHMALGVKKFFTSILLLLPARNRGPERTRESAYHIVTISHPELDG", "experiment": "RUP3 dose response in melanophores (mouse RUP3)", "format": "cell-based", "protocol": "as §1"}, "[3]": {"experiment": "Rat dose-range PK study (dose escalation pharmacokinetics)", "format": "in vivo", "details": "PO 3, 30, 300 mg/Kg, FIG. 1", "protocol": "Male SD rats (250-300 g) were purchased from Charles River Laboratory; upon receipt, animals were placed under light-dark cycle (6:30 am-6:30 pm lights on) They were allowed ad libitum access to water and 4 pieces of food daily (Purina Meals Rodent Diet, Product Number 5001).\nCompound formulations were prepared as following: The IV injection formulation was prepared in 20% hydroxypropyl-beta-cyclodextrin with concentration of 0.667 mg/mL. The PO formulations were prepared in 0.5% hydroxypropyl methylcellulose with concentrations of […]. The dosing volume for IV injection was 3 mL/Kg and for PO administration was 10 mL/Kg. Four rats were used for each dose group. […]\nPlasma samples were prepared as follows. […] Calibration standards were typically prepared in the range of 2.0 ng/mL to 10 μg/mL with linear regression for quantitation. […]\nResults were calculated by noncompartmental analysis using WinNonlin Pro version 3.1 based on plasma concentration-time profiles for individual animals. Plasma levels were determined as described above and the oral and intravenous area under the concentration vs. time curve (AUC was calculated using the linear trapezoidal rule up to the last measurable concentration and was then extrapolated to infinity) were compared to determine the % bioavailability (% oF) by the following formula: Dose (IV)*AUC (oral)/Dose (oral)*AUC (IV). […]"}, "[4]": {"biological_target": "T3, RUP3 receptor (Canis lupus familiaris, UniProt A0A8I3QZL6)", "T3 sequence (A0A8I3QZL6 1-335)": "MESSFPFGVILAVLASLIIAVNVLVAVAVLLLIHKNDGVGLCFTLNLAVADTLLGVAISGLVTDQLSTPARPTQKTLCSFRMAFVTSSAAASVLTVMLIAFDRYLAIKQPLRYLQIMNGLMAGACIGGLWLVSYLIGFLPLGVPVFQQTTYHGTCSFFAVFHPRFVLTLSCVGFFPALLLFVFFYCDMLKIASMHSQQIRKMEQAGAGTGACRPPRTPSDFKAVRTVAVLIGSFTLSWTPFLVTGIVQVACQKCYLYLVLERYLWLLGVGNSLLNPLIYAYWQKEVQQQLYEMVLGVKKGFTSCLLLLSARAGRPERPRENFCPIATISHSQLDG", "experiment": "RUP3 dose response in melanophores (dog RUP3)", "format": "cell-based", "protocol": "as §1"}, "[5]": {"system": "Male Sprague Dawley rats", "experiment": "Oral glucose tolerance test (oGTT) in rats", "format": "in vivo, rat", "details": "fasted male Sprague Dawley rats, p.o. 30 min before dextrose 3 g/kg, doses 0.3, 3 or 30 mg/kg (dose of this value not stated), mean of six animals", "protocol": "General Procedure—Oral Glucose tolerance test (oGTT)\nMale Sprague Dawley rats (Harlan, San Diego, Calif.) weighing approximately 350-375 g were fasted for 16 hours and randomly grouped (n=6) to receive a RUP3 agonist at 0.3, 3 or 30 mg/kg. Compounds were delivered orally via a gavage needle (p.o., volume 2 mL/kg). At time 0, levels of blood glucose were assessed using a glucometer (Accu-Chek Advantage, Roche Diagnostics), and rats were administered either vehicle (20% hydroxypropyl-beta-cyclodextrin) or test compound. Thirty minutes after administration of test compound, levels of blood glucose were again assessed, and rats were administered dextrose orally at a dose of 3 g/kg. Blood glucose measurements were then taken 30 min, 60 min, and 120 min after this time."}, "[6]": {"biological_target": "T4, RUP3 receptor (Rattus norvegicus, UniProt Q7TQN8)", "T4 construct": "expressed in transfected cells; host or cells: melanophores, electroporated", "T4 sequence (Q7TQN8 1-468)": "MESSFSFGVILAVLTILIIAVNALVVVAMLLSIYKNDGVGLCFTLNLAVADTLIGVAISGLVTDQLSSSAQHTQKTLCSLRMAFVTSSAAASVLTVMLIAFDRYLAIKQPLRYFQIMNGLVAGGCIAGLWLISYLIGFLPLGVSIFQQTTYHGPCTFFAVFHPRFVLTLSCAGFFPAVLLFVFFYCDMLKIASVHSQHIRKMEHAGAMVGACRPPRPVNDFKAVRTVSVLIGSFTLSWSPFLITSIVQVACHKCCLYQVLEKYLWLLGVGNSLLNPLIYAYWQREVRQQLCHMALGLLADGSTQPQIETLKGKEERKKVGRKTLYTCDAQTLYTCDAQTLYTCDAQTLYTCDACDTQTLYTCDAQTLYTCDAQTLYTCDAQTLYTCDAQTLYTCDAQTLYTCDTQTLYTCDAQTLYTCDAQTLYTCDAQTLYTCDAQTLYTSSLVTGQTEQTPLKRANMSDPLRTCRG", "experiment": "RUP3 dose response in melanophores (rat RUP3)", "format": "cell-based", "protocol": "as §1"}}}
{"molecule": "Cc1nc(S(C)(=O)=O)ccc1Nc1ncnc(OC2CCN(C(=O)OC(C)C)CC2)c1C", "note": "[Formula (I), 4-[6-(6-methanesulfonyl-2-methyl-pyridin-3-ylamino)-5-methyl-pyrimidin-4-yloxy]-piperidine-1-carboxylic acid isopropyl ester]", "values": [{"measurement": "EC50", "setting": "[1]", "result": 2, "unit": "nM"}, {"measurement": "EC50", "setting": "[2]", "result": 43, "unit": "nM"}, {"measurement": "dose escalation pharmacokinetics (AUC vs. dose linearity)", "setting": "[3]", "result": "essentially linear dose escalation pharmacokinetics"}, {"measurement": "EC50", "setting": "[4]", "result": 8, "unit": "nM"}, {"measurement": "mean percent inhibition of glucose excursion", "setting": "[5]", "result": 38, "unit": "%"}, {"measurement": "EC50", "setting": "[6]", "result": 42, "unit": "nM"}]}
